Read-outs that look alike come from different tables or passages of the source.
Experiments:
rice bran lipase [1] = tested on: rice bran lipase
Description: The enzyme solution containing different concentrations of ligands was passed through a sephadex G25 column which was previously equilibrated with the elution buffer. The protein eluting immediately after the void volume was collected and assayed for the activity.
The enzyme was also checked for reversibility of its original activity after removal of ligands by gel filtrations on Sephadex G-25 column.

rice bran lipase [2] = conditions: lipase 2 mg/ml, substrate 5% w/v, CaCl2 0.1 M
Description: To approximately 2 mg of rice bran lipase in 0.05 M sodium phosphate buffer, pH 7.4 is added different concentrations of ligands ranging from 1:10 to 1:1500 mole to mole ratio of protein to ligand and incubated for 1 h at30° C. in Innova™ 4000 incubator shaker at 150 rpm. The reaction mixture was checked for enzyme activity by pH-stat method using Mettler Toledo DL12 titrator using 5% solution of triacetin or tributyrin as substrate. Respective blank solutions where the enzyme was inactivated by the addition of distilled alcohol was also used. The activity was expressed in terms of control activity as microequivalents of alkali consumed per mg of protein per hour.
To approximately 2 mg of rice bran lipase in 0.05 m sodium phosphate buffer, pH 7.4 is added different concentrations of ligand ranging from 1:10 to 1:1500 on a mole to mole ratio and incubated fpr 1 hr at 30° C. in Innova™ 4000 incubator shaker at 150 rpm. The reaction mixture was checked for enzyme activity by pH start method using mettler Toledo DL 12 titrator using 5% solution of triacetin or tributyrin as substrate. Respective blank solutions where the enzyme was inactivated by the addition of distilled alcohol was also used. The activity was expressed in terms of control activity as micro equivalent of alkali consumed per mg of protein per hour.

benzene boronic acid [ligand]
reversibility of enzyme activity after removal of ligand (rice bran lipase [1]; 1:10 ratio, Sephadex G-25 column chromatography): able to recover the initial activity
reversibility of enzyme activity after removal of ligand (rice bran lipase [1]; 1:1500 mole to mole ratio, gel filtration on Sephadex G-25 column): recovered almost its original activity
loss of initial activity of rice bran lipase (rice bran lipase [2]; 1:10 mole to mole ratio of protein to ligand): 35%
loss of initial activity of rice bran lipase (rice bran lipase [2]; 1:1500 mole/mole protein to ligand): ~77%
